Values after ≈ are worked out from the molar mass of the structure shown.

Data set [1] can be described thus: Prodrug conversion in dog liver assessed as 1-((2R,3R,4R,5R)-3-bromo-3-chloro-4-hydroxy-5-(hydroxymethyl)tetrahydrofuran-2-yl)pyrimidine-2,4(1H,3H)-dione level at 5 mg/kg, po after 24 hrs. The class given is ADME, organism-based, Canis lupus familiaris. As to conditions: in vivo.
A short description of data set [2]: Prodrug conversion in dog liver assessed as nucleotide triphosphate level at 5 mg/kg, po measured after 24 hrs. Format: ADME, organism-based, Canis lupus familiaris. To be noted: in vivo.
Data set [3] in a line: Prodrug conversion in dog liver assessed as nucleotide triphosphate level at 5 mg/kg, po co-dosed with 5 mg/kg sofosbuvir after 24 hrs. The class given is ADME, organism-based, Canis lupus familiaris. As to conditions: in vivo.
A short description of data set [4]: Prodrug conversion in human hepatocytes assessed as nucleotide triphosphate level at 100 uM after 4 hrs. Format: ADME, cell-based, Hepatocyte.
The nature of data set [5]: Prodrug conversion in dog liver assessed as nucleotide triphosphate level at 5 mg/kg, po after 4 hrs. The class given is ADME, organism-based, Canis lupus familiaris. To be noted: in vivo.
The nature of data set [6]: Aqueous solubility of compound at pH 7.4. Format: physicochemical. As to conditions: buffer.
The nature of data set [7]: Half life in human hepatocytes. The class given is ADME, cell-based, Hepatocyte.
A short description of data set [8]: Prodrug conversion in dog liver assessed as 1-((2R,3R,4R,5R)-3-bromo-3-chloro-4-hydroxy-5-(hydroxymethyl)tetrahydrofuran-2-yl)pyrimidine-2,4(1H,3H)-dione level at 5 mg/kg, po after 4 hrs. The class given is ADME, organism-based, Canis lupus familiaris. To be noted: in vivo.
A short description of data set [9]: Prodrug conversion in human hepatocytes assessed as nucleotide triphosphate level at 100 uM incubated for 4 hrs followed by compound washout and further incubated in fresh media for 24 hrs. Format: ADME, cell-based, Hepatocyte.
Data set [10] is described as follows: Stability in human plasma assessed as parent compound remaining after 4 hrs. Format: ADME, cell-free. As to conditions: read-out: Stability.
Data set [11] is described as follows: Intrinsic clearance in human hepatocytes. As to conditions: read-out: CLH (converted). The class given is ADME, cell-based, Hepatocyte.
Data set [12] is described as follows: Prodrug conversion in dog liver assessed as nucleotide triphosphate level at 5 mg/kg, po co-dosed with 5 mg/kg sofosbuvir after 4 hrs. To be noted: in vivo. The class given is ADME, organism-based, Canis lupus familiaris.
The nature of data set [13]: Stability in dog plasma assessed as parent compound remaining after 4 hrs. The class given is ADME, cell-free, Canis lupus familiaris. To be noted: read-out: Stability.

By solubility is commonly meant the dissolved amount per volume that the medium holds. Broadly, the half-life is the time needed for the level to fall by half in the phase considered. For the compound `CC(C)OC(=O)C(C)(C)NP(=O)(OC[C@H]1O[C@@H](n2ccc(=O)[nH]c2=O)[C@](Cl)(Br)[C@@H]1O)Oc1ccccc1` (some centres not stated), the Drug metabolism in [1] came out at 0.04 µg/g; in data set [2], 0.244 µg/g; in data set [3], 3.43 µg/g; in data set [4], 157 µM; in data set [5], 0.713 µg/g; in [8], 0.252 µg/g. Further, the Drug metabolism in data set [9] came to 40 µM; in data set [12], 4.2 µg/g. The compound also gave a solubility in [6] of over 200 µM. Besides, in data set [7], the half-life was over 30 min. For the same compound, the remaining at 4 h in data set [10] came out at 109%; in data set [13], 104%. Also, the CLint scaled in [11] was 192 mL/min/kg.

In [6], `CC(C)OC(=O)[C@H](C)N[P@](=O)(OC[C@H]1O[C@@H](n2ccc(=O)[nH]c2=O)[C@](Cl)(Br)[C@@H]1OC(=O)[C@@H](N)C(C)C)Oc1cccc2ccccc12` gave a solubility of 4 µM (≈ 3.04 µg/mL). The compound also registered a half-life in data set [7] of over 30 min.

Turning to `CCOC(=O)[C@H](C)N[P@@](=O)(OC[C@H]1O[C@@H](n2ccc(=O)[nH]c2=O)[C@](Cl)(Br)[C@@H]1O)Oc1ccccc1`, the figures for the Drug metabolism in [4] and in data set [9] were 738 µM and 39 µM, respectively. For the same compound, the half-life in data set [7] was over 30 min. The CLint scaled in data set [11] was 185 mL/min/kg.

As for `COCC(=O)OC[C@H](C)NP(=O)(OC[C@H]1O[C@@H](n2ccc(=O)[nH]c2=O)[C@](Cl)(Br)[C@@H]1O)Oc1ccccc1` (some centres not stated), the figures for the Drug metabolism in data set [4] and in data set [9] were 120 µM and 16 µM, respectively. In [7], this compound showed a half-life of over 30 min. For the same compound, the CLint scaled in [11] was 223 mL/min/kg.

On to `CC(C)OC(=O)[C@H](C)N[P@](=O)(OC[C@H]1O[C@@H](n2ccc(=O)[nH]c2=O)[C@](Cl)(Br)[C@@H]1O)Oc1cccc2ccccc12`, for which the Drug metabolism was determined as 81 µM in data set [4] and 9 µM in [9]. In data set [6], this compound registered a solubility of 17 µM (≈ 11.2 µg/mL). The half-life in data set [7] was over 30 min. Also, the CLint scaled in data set [11] is 575 mL/min/kg.

For the compound `COCC(C)OC(=O)[C@H](C)NP(=O)(OC[C@H]1O[C@@H](n2ccc(=O)[nH]c2=O)[C@](Cl)(Br)[C@@H]1O)Oc1ccccc1` (some centres not stated), the Drug metabolism turned out to be 0.038 µg/g in data set [1]; 0.188 µg/g in data set [2]; 465 µM in data set [4]; 0.329 µg/g in [5]; 0.187 µg/g in data set [8]; 31 µM in data set [9]. For the same compound, the solubility in data set [6] was over 200 µM. In [7], this compound came in with a half-life of over 30 min. Further, the remaining at 4 h in [10] was determined as 87%; in data set [13], 84%. Moreover, the CLint scaled in [11] was 242 mL/min/kg.

On to `CCOC(=O)[C@H](C)N[P@](=O)(OC[C@H]1O[C@@H](n2ccc(=O)[nH]c2=O)[C@](Cl)(Br)[C@@H]1O)Oc1ccccc1`, for which the Drug metabolism stood at 90 µM in [4] and 18 µM in data set [9]. The half-life in [7] is over 30 min. The CLint scaled in data set [11] is 152 mL/min/kg.

With `COCC(C)C(=O)OC[C@H](C)NP(=O)(OC[C@H]1O[C@@H](n2ccc(=O)[nH]c2=O)[C@](Cl)(Br)[C@@H]1O)Oc1ccccc1` (some centres not stated), the Drug metabolism worked out at 188 µM in data set [4] and 24 µM in [9]. Also, the half-life in data set [7] is over 30 min. Moreover, the CLint scaled in [11] was 282 mL/min/kg.

Consider `COc1cccc(O[P@](=O)(N[C@@H](C)C(=O)OC(C)C)OC[C@H]2O[C@@H](n3ccc(=O)[nH]c3=O)[C@](Cl)(Br)[C@@H]2O)c1`, for which the Drug metabolism in data set [4] stood at 35 µM; in data set [9] it was 14 µM. In [6], this compound yielded a solubility of 20 µM (≈ 12.8 µg/mL). Further, the half-life in data set [7] was over 30 min. In addition, the CLint scaled in data set [11] was 335 mL/min/kg.

The record behind these values is ChEMBL document CHEMBL4627278, “Discovery of 2-aminoisobutyric acid ethyl ester (AIBEE) phosphoramidate prodrugs for delivering nucleoside HCV NS5B polymerase inhibitors” (Bioorg Med Chem Lett, 2020).
